The values below come from patent publication US10189838B2, “Aza-oxo-indoles for the treatment and prophylaxis of respiratory syncytial virus infection” (Hoffmann-La Roche Inc., priority 2013, dated 2019).

The test system of the assay is RSV Long strain. Description: Viral cytopathic effect (CPE) assay, RSV Long strain. The assay is classed as cell-based, Respiratory Syncytial Virus. Conditions: human respiratory syncytial virus, 144 h, cell viability after 6 days (Cell Counting kit-8). The method, then:
EC50: the concentration of a compound where 50% of its maximal protection effect against viral induced CPE is observed
LongStrain: an A subtype RSV strain obtained from ATCC with catalog number VR-26
To measure anti-RSV activity of compounds, 96-well plates are seeded with 6×10^3 cells per well in Dulbecco's modified Eagle's medium (DMEM) containing 10% fetal bovine serum (FBS). Cells are infected the next day with sufficient RSV Long strain (ATCC) to produce an approximately 80-90% cytopathic effect after 6 days, in the presence of serial half-log diluted compound in a total volume of […] per well. The viability of cells is assessed after 6 days using Cell Counting kit-8 (Dojindo Molecular Technologies). The absorbance at 450 nm and referenced at 630 nm is measured to determine 50% effective concentration (EC50)
On the technique in general: Damage to the host cells serves as the signal in cytopathic effect assays.
`CS(=O)(=O)CCCCn1c(CN2C(=O)C3(CC3)c3ccncc32)cc2nc(Cl)ccc21` [Example 4-5, 1′-({5-Chloro-1-[4-(methylsulfonyl)butyl]-1H-pyrrolo[3,2-b]pyridin-2-yl}methyl)spiro[cyclopropane-1,3′-pyrrolo[2,3-c]pyridin]-2′(1′H)-one]: the EC50 (in general, the concentration needed to bring the measured effect to its halfway point) turned out to be 0.0221 µM.
Then `O=C1N(Cc2cc3nc(Cl)ccc3n2CCCS(=O)(=O)C2CC2)c2cnccc2C12CC2` [Example 4-6, 1′-({5-Chloro-1-[3-(cyclopropylsulfonyl)propyl]-1H-pyrrolo[3,2-b]pyridin-2-yl}methyl)spiro[cyclopropane-1,3′-pyrrolo[2,3-c]pyridin]-2′(1′H)-one], with 0.029 µM; and `CS(=O)(=O)CCCCn1c(CN2C(=O)C3(CC3)c3ccncc32)cc2cc(Cl)ncc21` [Example 4-7, 1′-({5-Chloro-1-[4-(methylsulfonyl)butyl]-1H-pyrrolo[2,3-c]pyridin-2-yl}methyl)spiro[cyclopropane-1,3′-pyrrolo[2,3-c]pyridin]-2′(1′H)-one], with 0.027 µM.
`CN(Cc1ccccc1)S(=O)(=O)CCCn1c(CN2C(=O)C3(CC3)c3ccncc32)cc2cc(Cl)cnc21` [Example 4-8, N-Benzyl-3-{5-chloro-2-[(2′-oxospiro[cyclopropane-1,3′-pyrrolo[2,3-c]pyridin]-1′(2′H)-yl)methyl]-1H-pyrrolo[2,3-b]pyridin-1-yl}-N-methylpropane-1-sulfonamide] registered an EC50 of 0.777 µM.
Turning to `O=C1N(Cc2cc3cc(Cl)ncc3n2CCCS(=O)(=O)C2CC2)c2cnccc2C12CC2` [Example 4-9, 1′-({5-Chloro-1-[3-(cyclopropylsulfonyl)propyl]-1H-pyrrolo[2,3-c]pyridin-2-yl}methyl)spiro[cyclopropane-1,3′-pyrrolo[2,3-c]pyridin]-2′(1′H)-one], the EC50 was 0.0487 µM.
Molecule `O=C1N(Cc2cc3cc(Cl)ncc3n2CCC2CSC2)c2cnccc2C12CC2` [Example 4-10, 1′-({5-Chloro-1[2-(thietan-3-yl)ethyl]-1H-pyrrolo[2,3-c]pyridin-2-yl}methyl)spiro[cyclopropane-1,3′-pyrrolo[2,3-c]pyridin]-2′(1′H)-one] returned an EC50 of 0.074 µM. This EC50 is about 1.5-fold higher than that of the molecule before.
For `O=C1N(Cc2cc3cc(Cl)ncc3n2CCC2CS(=O)(=O)C2)c2cnccc2C12CC2` [Example 4-11, 1′-({5-Chloro-1-[2-(1,1-dioxidothietan-3-yl)ethyl]-1H-pyrrolo[2,3-c]pyridin-2-yl}methyl)spiro[cyclopropane-1,3′-pyrrolo[2,3-c]pyridin]-2′(1′H)-one], it took 0.018 µM to reach a half-maximal effect (EC50).
`CS(=O)(=O)CCCn1c(CN2C(=O)C3(CCC3)c3ccncc32)cc2cc(Cl)cnc21` [Example 4-12, 1′-({5-Chloro-1-[3-(methylsulfonyl)propyl]-1H-pyrrolo[2,3-b]pyridin-2-yl}methyl)spiro[cyclobutane-1,3′-pyrrolo[2,3-c]pyridin]-2′(1′H)-one]: a half-maximal effect (EC50) was put at 0.0568 µM.
The result for `CS(=O)(=O)CCCn1c(CN2C(=O)C3(CC3)c3ccncc32)cc2cc(Cl)ncc21` [Example 4-13, 1′-({5-Chloro-1-[3-(methylsulfonyl)propyl]-1H-pyrrolo[2,3-c]pyridin-2-yl}methyl)spiro[cyclopropane-1,3′-pyrrolo[2,3-c]pyridin]-2′(1′H)-one] reads 0.026 µM; that for `O=C1N(Cc2cc3nc(Cl)ccc3n2CCS(=O)(=O)C2CC2)c2cnccc2C12CC2` [Example 4-14, 1′-({5-Chloro-1-[2-(cyclopropylsulfonyl)ethyl]-1H-pyrrolo[3,2-b]pyridin-2-yl}methyl)spiro[cyclopropane-1,3′-pyrrolo[2,3-c]pyridin]-2′(1′H)-one], 0.072 µM.
The result for `CS(=O)(=O)CCCn1c(CN2C(=O)C3(CC3)c3ccncc32)cc2nc(Cl)ccc21` [Example 4-15, 1′-({5-Chloro-1-[3-(methylsulfonyl)propyl]-1H-pyrrolo[3,2-b]pyridin-2-yl}methyl)spiro[cyclopropane-1,3′-pyrrolo[2,3-c]pyridin]-2′(1′H)-one] reads 0.018 µM.
Molecule `CS(=O)(=O)CCCCn1c(CN2C(=O)C3(CC3)c3ccncc32)cc2cc(Cl)cnc21` [Example 4-16, 1′-({5-Chloro-1-[4-(methylsulfonyl)butyl]-1H-pyrrolo[2,3-b]pyridin-2-yl}methyl)spiro[cyclopropane-1,3′-pyrrolo[2,3-c]pyridin]-2′(1′H)-one] displayed an EC50 of 0.0549 µM.
For `C[S+]([O-])CCCn1c(CN2C(=O)C3(CC3)c3ccncc32)cc2cc(Cl)ccc21` (stereo not drawn) [Example 5-1, 1′-({5-Chloro-1-[3-(methylsulfinyl)propyl]-1H-indol-2-yl}methyl)spiro[cyclopropane-1,3′-pyrrolo[2,3-c]pyridin]-2′(1′H)-one], it took 0.009 µM to reach a half-maximal effect (EC50).
The result for `CS(=O)(=O)CCn1c(CN2C(=O)C3(CC3)c3ccncc32)cc2cc(Cl)ncc21` [Example 5-2, 1′-({5-Chloro-1-[2-(methylsulfonyl)ethyl]-1H-pyrrolo[2,3-c]pyridin-2-yl}methyl)spiro[cyclopropane-1,3′-pyrrolo[2,3-c]pyridin]-2′(1′H)-one] reads 0.269 µM; that for `CCS(=O)(=O)CCn1c(CN2C(=O)C3(CC3)c3ccncc32)cc2nc(Cl)ccc21` [Example 6, 1′-({5-Chloro-1-[2-(ethylsulfonyl)ethyl]-1H-pyrrolo[3,2-b]pyridin-2-yl}methyl)spiro[cyclopropane-1,3′-pyrrolo[2,3-c]pyridin]-2′(1′H)-one], 0.131 µM.
`CN(C)S(=O)(=O)CCCn1c(CN2C(=O)C3(CC3)c3ccncc32)cc2cc(Cl)ccc21` [Example 7-1, 3-{5-Chloro-2-[(2′-oxospiro[cyclopropane-1,3′-pyrrolo[2,3-c]pyridin]-1′(2′H)-yl)methyl]-1H-indol-1-yl}-N,N-dimethylpropane-1-sulfonamide] returned a half-maximal effective concentration (EC50) of 0.007 µM. This EC50 lies about 19-fold lower than the previous one.
As for `CN(C)S(=O)(=O)CCCn1c(CN2C(=O)C3(CC3)c3ccncc32)cc2cc(Cl)cnc21` [Example 7-2, 3-{5-Chloro-2-[(2′-oxospiro[cyclopropane-1,3′-pyrrolo[2,3-c]pyridin]-1′(2′H)-yl)methyl]-1H-pyrrolo[2,3-b]pyridin-1-yl}-N,N-dimethylpropane-1-sulfonamide], the EC50 is 0.064 µM.
For `CN(C)S(=O)(=O)CCn1c(CN2C(=O)C3(CC3)c3ccncc32)cc2cc(Cl)ccc21` [Example 7-3, 2-{5-Chloro-2-[(2′-oxospiro[cyclopropane-1,3′-pyrrolo[2,3-c]pyridin]-1′(2′H)-yl)methyl]-1H-indol-1-yl}-N,N-dimethylethanesulfonamide], the EC50 was 0.023 µM.
In turn, `O=C1N(Cc2cc3cc(Cl)ccc3n2CCCS(=O)(=O)N2CCOCC2)c2cnccc2C12CC2` [Example 7-4, 1′-({5-Chloro-1-[3-(morpholin-4-ylsulfonyl)propyl]-1H-indol-2-yl}methyl)spiro[cyclopropane-1,3′-pyrrolo[2,3-c]pyridin]-2′(1′H)-one] registered an EC50 of 0.014 µM.
`O=C1N(Cc2cc3cc(Cl)ccc3n2CCCS(=O)(=O)N2CCCC2)c2cnccc2C12CC2` [Example 7-5, 1′-({5-Chloro-1-[3-(pyrrolidin-1-ylsulfonyl)propyl]-1H-indol-2-yl}methyl)spiro[cyclopropane-1,3′-pyrrolo[2,3-c]pyridin]-2′(1′H)-one] returned an EC50 of 0.02 µM. This EC50 and that of the molecule before are within 1.5-fold of each other.
Then `O=C1CN(S(=O)(=O)CCCn2c(CN3C(=O)C4(CC4)c4ccncc43)cc3cc(Cl)ccc32)CCN1` [Example 7-6, 1′-[(5-Chloro-1-{3-[(3-oxopiperazin-1-yl)sulfonyl]propyl}-1H-indol-2-yl)methyl]spiro[cyclopropane-1,3′-pyrrolo[2,3-c]pyridin]-2′(1′H)-one], with 0.007 µM.
The molecule `O=C1N(Cc2cc3cc(Cl)ccc3n2CCN2CCCS2(=O)=O)c2cnccc2C12CC2` [Example 7-7, 1′-({5-Chloro-1-[2-(1,1-dioxido-1,2-thiazolidin-2-yl)ethyl]-1H-indol-2-yl}methyl)spiro[cyclopropane-1,3′-pyrrolo[2,3-c]pyridin]-2′(1′H)-one] returned an EC50 of 0.035 µM.
The molecule `O=C1N(Cc2cc3cc(Cl)ccc3n2CCCCN2CCCS2(=O)=O)c2cnccc2C12CC2` [Example 7-8, 1′-({5-Chloro-1-[4-(1,1-dioxido-1,2-thiazolidin-2-yl)butyl]-1H-indol-2-yl}methyl)spiro[cyclopropane-1,3′-pyrrolo[2,3-c]pyridin]-2′(1′H)-one] gave a concentration for a half-maximal effect (EC50) of 0.018 µM.
Then `O=C1N(Cc2cc3cc(Cl)ccc3n2CCCN2CCS(=O)(=O)CC2)c2cnccc2C12CC2` [Example 7-9, 1′-({5-Chloro-1-[3-(1,1-dioxidothiomorpholin-4-yl)propyl]-1H-indol-2-yl}methyl)spiro[cyclopropane-1,3′-pyrrolo[2,3-c]pyridin]-2′(1′H)-one], with 0.797 µM.
Regarding `O=C1N(Cc2cc3cc(Cl)ccc3n2CCCN2CCCS2(=O)=O)c2cnccc2C12CC2` [Example 7-10, 1′-({5-Chloro-1-[3-(1,1-dioxido-1,2-thiazolidin-2-yl)propyl]-1H-indol-2-yl}methyl)spiro[cyclopropane-1,3′-pyrrolo[2,3-c]pyridin]-2′(1′H)-one], the EC50 turned out to be 0.029 µM. This EC50 lies about 27-fold lower than the previous one.
Molecule `O=C1N(Cc2cc3cc(Cl)ccc3n2CCCO)c2cnccc2C12CC2` [Example 8, 1′-{[5-Chloro-1-(3-hydroxypropyl)-1H-indol-2-yl]methyl}spiro[cyclopropane-1,3′-pyrrolo[2,3-c]pyridin]-2′(1′H)-one] came in with a half-maximal effective concentration (EC50) of 0.058 µM.
The molecule `[2H]C([2H])(c1cc2cc(Cl)ccc2n1CCS(C)(=O)=O)N1C(=O)C2(CC2)c2ccncc21` [Example 9, 1′-[{5-Chloro-1-[2-(methylsulfonyl)ethyl]-1H-indol-2-yl}(^2H2)methyl]spiro[cyclopropane-1,3′-pyrrolo[2,3-c]pyridin]-2′(1′H)-one] had a half-maximal effective concentration (EC50) of 0.019 µM.
